Source: patent publication US12516095B2, “Peptide hormone analogues” (IP2IPO INNOVATIONS LIMITED, priority 2019, dated 2026)
Starred links: 1 amine or outer side, 2 acyl side, 3 side chain; linkers in the order of their positions; H or OH if unused. Non-standard residues stand in square brackets, D forms with d. Residues, ends and D or L forms follow the SMILES beside them. Groups on a side chain read outwards from the residue. *: point of attachment. C20 diacid = O=C(O)CCCCCCCCCCCCCCCCCCC(=O)*; C18 diacid = O=C(O)CCCCCCCCCCCCCCCCC(=O)*; γGlu = O=C(O)[C@H](CCC(=O)[*:2])N[*:1]; Aib = CC(C)(N)C(=O)O

Experiment: PK measurements for half life assessment in pigs
Type: in vivo, pig
Details: male large white pigs, single subcutaneous injection, plasma; time from tmax to half of Cmax; typically mean of four animals
Experimental: Male large white pigs receive a single subcutaneous injection of the test compound at the start of study (0 hours). Repeated blood samples were taken from the pig over the proceeding 168 hours and plasma separated and stored at −20 to −80° C. Plasma concentration of the test compound was quantified using a radioimmunoassay or mass spectrum analysis. Time taken from tmax to half of Cmax was calculated and represents the half-life (t½) of the compound. Typically, the presented t½ is the mean of four separate animals.

“H-H[Aib]HGTFTSDYSKYLDAKRAQEFIEWLLQSHHQQHESPPPGK([γGlu-C20 diacid])-OH [Example 701]” showed a Half life of 66 h.

Same assay, conditions: male, large white, pig, plasma, sc, single subcutaneous injection, time from tmax to half of Cmax, typically mean of four animals

`CC[C@H](C)[C@H](NC(=O)[C@H](Cc1ccccc1)NC(=O)[C@H](CCC(=O)O)NC(=O)[C@H](Cc1c[nH]cn1)NC(=O)[C@H](C)NC(=O)[C@H](CCCNC(=N)N)NC(=O)[C@H](CCCCN)NC(=O)[C@H](C)NC(=O)[C@H](CC(=O)O)NC(=O)[C@H](CC(C)C)NC(=O)[C@H](Cc1ccc(O)cc1)NC(=O)[C@H](CCCCN)NC(=O)[C@H](CO)NC(=O)[C@H](Cc1ccc(O)cc1)NC(=O)[C@H](CC(=O)O)NC(=O)[C@H](CO)NC(=O)[C@@H](NC(=O)[C@H](Cc1ccccc1)NC(=O)[C@@H](NC(=O)CNC(=O)[C@H](Cc1c[nH]cn1)NC(=O)C(C)(C)NC(=O)[C@@H](N)Cc1c[nH]cn1)[C@@H](C)O)[C@@H](C)O)C(=O)N[C@@H](CCC(=O)O)C(=O)N[C@@H](Cc1c[nH]c2ccccc12)C(=O)N[C@@H](CC(C)C)C(=O)N[C@@H](CC(C)C)C(=O)N[C@@H](CCC(N)=O)C(=O)N[C@@H](CO)C(=O)N[C@@H](Cc1c[nH]cn1)C(=O)N[C@@H](CCC(N)=O)C(=O)N[C@@H](CCC(N)=O)C(=O)N[C@@H](Cc1c[nH]cn1)C(=O)N[C@@H](CCC(=O)O)C(=O)N[C@@H](CO)C(=O)N1CCC[C@H]1C(=O)N1CCC[C@H]1C(=O)N1CCC[C@H]1C(=O)NCC(=O)N[C@@H](CCCCNC(=O)[C@H](CC(N)=O)NC(=O)CC[C@H](NC(=O)CCCCCCCCCCCCCCCCCCC(=O)O)C(=O)O)C(=O)O` [Example 652] (H-H[Aib]HGTFTSDYSKYLDAKRAHEFIEWLLQSHQQHESPPPGK([Asn-γGlu-C20 diacid])-OH) and `CC[C@H](C)[C@H](NC(=O)[C@H](Cc1ccccc1)NC(=O)[C@H](CCC(=O)O)NC(=O)[C@H](CCCNC(=N)N)NC(=O)[C@H](C)NC(=O)[C@H](CCCNC(=N)N)NC(=O)[C@H](CCCCN)NC(=O)[C@H](C)NC(=O)[C@H](CC(=O)O)NC(=O)[C@H](CC(C)C)NC(=O)[C@H](Cc1ccc(O)cc1)NC(=O)[C@H](CCCCN)NC(=O)[C@H](CO)NC(=O)[C@H](Cc1ccc(O)cc1)NC(=O)[C@H](CC(=O)O)NC(=O)[C@H](CO)NC(=O)[C@@H](NC(=O)[C@H](Cc1ccccc1)NC(=O)[C@@H](NC(=O)CNC(=O)[C@H](Cc1c[nH]cn1)NC(=O)C(C)(C)NC(=O)[C@@H](N)Cc1c[nH]cn1)[C@@H](C)O)[C@@H](C)O)C(=O)N[C@@H](CCC(=O)O)C(=O)N[C@@H](Cc1c[nH]c2ccccc12)C(=O)N[C@@H](CC(C)C)C(=O)N[C@@H](CC(C)C)C(=O)N[C@@H](CCC(N)=O)C(=O)N[C@@H](CO)C(=O)N[C@@H](Cc1c[nH]cn1)C(=O)N[C@@H](CCC(N)=O)C(=O)N[C@@H](CCC(N)=O)C(=O)N[C@@H](Cc1c[nH]cn1)C(=O)N[C@@H](CCC(=O)O)C(=O)N[C@@H](CO)C(=O)N1CCC[C@H]1C(=O)N1CCC[C@H]1C(=O)N1CCC[C@H]1C(=O)NCC(=O)N[C@@H](CCCCNC(=O)[C@H](CC(N)=O)NC(=O)CC[C@H](NC(=O)CCCCCCCCCCCCCCCCCCC(=O)O)C(=O)O)C(=O)O` [Example 704] (H-H[Aib]HGTFTSDYSKYLDAKRAREFIEWLLQSHQQHESPPPGK([Asn-γGlu-C20 diacid])-OH) are within 1.5-fold of each other in half-life: 116 h for the first, 96 h for the second.

`CC[C@H](C)[C@H](NC(=O)[C@H](Cc1ccccc1)NC(=O)[C@H](CCC(=O)O)NC(=O)[C@H](CCCNC(=N)N)NC(=O)[C@H](C)NC(=O)[C@H](CCCNC(=N)N)NC(=O)[C@H](CCCCN)NC(=O)[C@H](C)NC(=O)[C@H](CC(=O)O)NC(=O)[C@H](CC(C)C)NC(=O)[C@H](Cc1ccc(O)cc1)NC(=O)[C@H](CCCCN)NC(=O)[C@H](CO)NC(=O)[C@H](Cc1ccc(O)cc1)NC(=O)[C@H](CC(=O)O)NC(=O)[C@H](CO)NC(=O)[C@@H](NC(=O)[C@H](Cc1ccccc1)NC(=O)[C@@H](NC(=O)CNC(=O)[C@H](Cc1c[nH]cn1)NC(=O)C(C)(C)NC(=O)[C@@H](N)Cc1c[nH]cn1)[C@@H](C)O)[C@@H](C)O)C(=O)N[C@@H](CCC(=O)O)C(=O)N[C@@H](Cc1c[nH]c2ccccc12)C(=O)N[C@@H](CC(C)C)C(=O)N[C@@H](CC(C)C)C(=O)N[C@@H](CCC(N)=O)C(=O)N[C@@H](CO)C(=O)N[C@@H](Cc1c[nH]cn1)C(=O)N[C@@H](CCC(N)=O)C(=O)N[C@@H](CCC(N)=O)C(=O)N[C@@H](Cc1c[nH]cn1)C(=O)N1CCC[C@H]1C(=O)N[C@@H](CO)C(=O)N1CCC[C@H]1C(=O)N1CCC[C@H]1C(=O)N1CCC[C@H]1C(=O)NCC(=O)N[C@@H](CCCCNC(=O)[C@H](CC(N)=O)NC(=O)CC[C@H](NC(=O)CCCCCCCCCCCCCCCCCCC(=O)O)C(=O)O)C(=O)O` [Example 705] (H-H[Aib]HGTFTSDYSKYLDAKRAREFIEWLLQSHQQHPSPPPGK([Asn-γGlu-C20 diacid])-OH) and `CC[C@H](C)[C@H](NC(=O)[C@H](Cc1ccccc1)NC(=O)[C@H](CCC(=O)O)NC(=O)[C@H](CCC(N)=O)NC(=O)[C@H](C)NC(=O)[C@H](CCCNC(=N)N)NC(=O)[C@H](CCCCN)NC(=O)[C@H](C)NC(=O)[C@H](CC(=O)O)NC(=O)[C@H](CC(C)C)NC(=O)[C@H](Cc1ccc(O)cc1)NC(=O)[C@H](CCCCN)NC(=O)[C@H](CO)NC(=O)[C@H](Cc1ccc(O)cc1)NC(=O)[C@H](CC(=O)O)NC(=O)[C@H](CO)NC(=O)[C@@H](NC(=O)[C@H](Cc1ccccc1)NC(=O)[C@@H](NC(=O)CNC(=O)[C@H](Cc1c[nH]cn1)NC(=O)C(C)(C)NC(=O)[C@@H](N)Cc1c[nH]cn1)[C@@H](C)O)[C@@H](C)O)C(=O)N[C@@H](CCC(=O)O)C(=O)N[C@@H](Cc1c[nH]c2ccccc12)C(=O)N[C@@H](CC(C)C)C(=O)N[C@@H](CC(C)C)C(=O)N[C@@H](CCC(N)=O)C(=O)N[C@@H](CO)C(=O)N[C@@H](Cc1c[nH]cn1)C(=O)N[C@@H](CCC(N)=O)C(=O)N[C@@H](CCC(N)=O)C(=O)N[C@@H](Cc1c[nH]cn1)C(=O)N1CCC[C@H]1C(=O)N[C@@H](CO)C(=O)N1CCC[C@H]1C(=O)N1CCC[C@H]1C(=O)N1CCC[C@H]1C(=O)NCC(=O)N[C@@H](CCCCNC(=O)[C@H](CC(N)=O)NC(=O)CC[C@H](NC(=O)CCCCCCCCCCCCCCCCCCC(=O)O)C(=O)O)C(=O)O` [Example 706] (H-H[Aib]HGTFTSDYSKYLDAKRAQEFIEWLLQSHQQHPSPPPGK([Asn-γGlu-C20 diacid])-OH) are within 1.5-fold of each other in half-life: 84 h for the first, 110 h for the second.

`CC[C@H](C)[C@H](NC(=O)[C@H](Cc1ccccc1)NC(=O)[C@H](CCC(=O)O)NC(=O)[C@H](CCC(N)=O)NC(=O)[C@H](C)NC(=O)[C@H](CCCNC(=N)N)NC(=O)[C@H](CCCCN)NC(=O)[C@H](C)NC(=O)[C@H](CC(=O)O)NC(=O)[C@H](CC(C)C)NC(=O)[C@H](Cc1ccc(O)cc1)NC(=O)[C@H](CCCCN)NC(=O)[C@H](CO)NC(=O)[C@H](Cc1ccc(O)cc1)NC(=O)[C@H](CC(=O)O)NC(=O)[C@H](CO)NC(=O)[C@@H](NC(=O)[C@H](Cc1ccccc1)NC(=O)[C@@H](NC(=O)CNC(=O)[C@H](Cc1c[nH]cn1)NC(=O)C(C)(C)NC(=O)[C@@H](N)Cc1c[nH]cn1)[C@@H](C)O)[C@@H](C)O)C(=O)N[C@@H](CCC(=O)O)C(=O)N[C@@H](Cc1c[nH]c2ccccc12)C(=O)N[C@@H](CC(C)C)C(=O)N[C@@H](CC(C)C)C(=O)N[C@@H](CCC(N)=O)C(=O)N[C@@H](CO)C(=O)N[C@@H](Cc1c[nH]cn1)C(=O)N[C@@H](CCC(N)=O)C(=O)N[C@@H](CCC(N)=O)C(=O)N[C@@H](Cc1c[nH]cn1)C(=O)N1CCC[C@H]1C(=O)N[C@@H](CO)C(=O)N[C@@H](CO)C(=O)N[C@@H](CO)C(=O)N[C@@H](CO)C(=O)N[C@@H](C)C(=O)N[C@@H](CCCCNC(=O)[C@H](CC(N)=O)NC(=O)CC[C@H](NC(=O)CCCCCCCCCCCCCCCCCCC(=O)O)C(=O)O)C(=O)O` [Example 707] (H-H[Aib]HGTFTSDYSKYLDAKRAQEFIEWLLQSHQQHPSSSSAK([Asn-γGlu-C20 diacid])-OH) and `CC[C@H](C)[C@H](NC(=O)[C@H](Cc1ccccc1)NC(=O)[C@H](CCC(=O)O)NC(=O)[C@H](CCC(N)=O)NC(=O)[C@H](C)NC(=O)[C@H](CCCNC(=N)N)NC(=O)[C@H](CCCCN)NC(=O)[C@H](C)NC(=O)[C@H](CC(=O)O)NC(=O)[C@H](CC(C)C)NC(=O)[C@H](Cc1ccc(O)cc1)NC(=O)[C@H](CCCCN)NC(=O)[C@H](CO)NC(=O)[C@H](Cc1ccc(O)cc1)NC(=O)[C@H](CC(=O)O)NC(=O)[C@H](CO)NC(=O)[C@@H](NC(=O)[C@H](Cc1ccccc1)NC(=O)[C@@H](NC(=O)CNC(=O)[C@H](Cc1c[nH]cn1)NC(=O)C(C)(C)NC(=O)[C@@H](N)Cc1c[nH]cn1)[C@@H](C)O)[C@@H](C)O)C(=O)N[C@@H](CCC(=O)O)C(=O)N[C@@H](Cc1c[nH]c2ccccc12)C(=O)N[C@@H](CC(C)C)C(=O)N[C@@H](CC(C)C)C(=O)N[C@@H](CCC(N)=O)C(=O)N[C@@H](CO)C(=O)N[C@@H](Cc1c[nH]cn1)C(=O)N[C@@H](CCC(N)=O)C(=O)N[C@@H](CCC(N)=O)C(=O)N[C@@H](Cc1c[nH]cn1)C(=O)N1CCC[C@H]1C(=O)N[C@@H](CO)C(=O)N[C@@H](CO)C(=O)N[C@@H](CO)C(=O)N[C@@H](C)C(=O)N[C@@H](CCCCNC(=O)[C@H](CC(N)=O)NC(=O)CC[C@H](NC(=O)CCCCCCCCCCCCCCCCCCC(=O)O)C(=O)O)C(=O)O` [Example 708] (H-H[Aib]HGTFTSDYSKYLDAKRAQEFIEWLLQSHQQHPSSSAK([Asn-γGlu-C20 diacid])-OH) are within 1.5-fold of each other in half-life: 103 h for the first, 105 h for the second.

Going from “H-H[Aib]HGTFTSDYSKYLDAKRAQEFIEWLLQSHHQQHESPPPGK([Asn-γGlu-C20 diacid])-OH [Example 647]” to “H-H[Aib]HGTFTSDYSKYLDAKRAQEFIEWLLQSHHQQHESPPPGK([γGlu-C20 diacid])-OH [Example 646]”, the half-life falls from 106 h to 42 h (2.5-fold).

“H-H[Aib]HGTFTSDYSKYLDAKRAQEFIEWLLQSHQHQHESPPPGK([His-Asn-γGlu-C18 diacid])-OH [Example 640]” and “H-H[Aib]HGTFTSDYSKYLDAKRAQEFIEWLLQSHQQHHESPPPGK([γGlu-C20 diacid])-OH [Example 642]” are within 1.5-fold of each other in half-life: 135 h for the first, 109 h for the second.
